Source: patent US7608619B2, “Substituted oxazole compounds with analgesic activity” (Gruenenthal GmbH, priority 2005, dated 2009)

The compounds below were run against T1, human μ-opiate receptor (Homo sapiens, UniProt P35372) (assay: Affinity for the human μ-opiate receptor ([3H]-naloxone displacement, SPA, CHO-K1 membrane preparation)). Details: test substance 1 μmole/l; displacement of 1 nmole/l [3H]-naloxone; percentage inhibition of the specific binding.
T1 construct: purchased Nen company, Zaventem, Belgium RB-HOM; host or cells: CHO-K1 cells (membrane preparation)
T1 sequence (P35372 whole entry): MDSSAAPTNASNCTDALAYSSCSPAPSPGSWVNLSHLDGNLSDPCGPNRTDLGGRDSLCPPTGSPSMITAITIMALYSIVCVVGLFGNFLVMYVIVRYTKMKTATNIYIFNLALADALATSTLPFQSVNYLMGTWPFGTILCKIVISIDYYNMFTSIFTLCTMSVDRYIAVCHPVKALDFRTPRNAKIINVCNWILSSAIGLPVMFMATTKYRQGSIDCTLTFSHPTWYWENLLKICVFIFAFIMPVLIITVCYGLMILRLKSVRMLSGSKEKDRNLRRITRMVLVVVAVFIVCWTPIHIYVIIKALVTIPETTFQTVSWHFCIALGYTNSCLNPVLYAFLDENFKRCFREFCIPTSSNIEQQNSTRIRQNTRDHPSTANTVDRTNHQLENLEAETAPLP
Procedure, shortened: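 [3H]-naloxone (1 nmol/l) displacement by SPA with WGA beads, using membranes of CHO-K1 cells expressing the receptor, in 50 mmol/l Tris-HCl with 0.05% azide and 0.06% BSA; 90 min at room temperature. Non-specific binding defined with 25 μmol/l naloxone. Value is % inhibition of specific binding at 1 μmol/l test compound.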

Structure (SMILES)	μ-opioid receptor, % inhibition [1 μM] [%]
CN(C)C(c1cccs1)C1CCC(C(c2nc(Cc3ccccc3)c(N3CCCC3)o2)N2CCN(c3ccc(F)cc3)CC2)CC1 (centres unmarked) [compound 142, [(4.-{(4-benzyl-5-pyrrolidin-1-yl-oxazol-2-yl)-[4-(4-fluorophenyl)-piperazin-1-yl]-me.thyl}-cyclohexyl)-thiophen-2-yl-methyl]-dimethylamine]	85

Same assay, conditions: test substance 1 μmole/l; displacement of 1 nmole/l [3H]-naloxone; percentage inhibition of the specific binding; read-out: μ-opioid receptor, % inhibition [1 μM]

Structure (SMILES)	inhibition at 1 µM [%]
CN(C)C(c1cccc(F)c1)C1CCC(C(c2nc(Cc3ccccc3)c(N3CCCC3)o2)N2CCOCC2)CC1 (centres unmarked) [compound 120, [{4-[(4-benzyl-5-pyrrolidin-1-yl-oxazol-2-yl)-morpholin-4-yl-methyl]-cyclohexyl}-(3-fluorophenyl)-methyl]-dimethylamine]	75
CN(C)C(c1cccc(F)c1)C1CCC(C(c2nc(Cc3ccccc3)c(N3CCOCC3)o2)N2CCOCC2)CC1 (centres unmarked) [compound 121, [{4-[(4-benzyl-5-morpholin-4-yl-oxazol-2-yl)-morpholin-4-yl-methyl]-cyclohexyl}-(3-fluorophenyl)-methyl]-dimethylamine]	67
CN(C)C(c1cccc(F)c1)C1CCC(C(c2nc(Cc3ccccc3)c(N3CCCC3)o2)N2CCN(c3ccc(F)cc3)CC2)CC1 (centres unmarked) [compound 122, [(4-{(4-benzyl-5-pyrrolidin-1-yl-oxazol-2-yl)-[4-(4-fluorophenyl)-piperazin-1-yl]-methyl}-cyclohexyl)-(3-fluorophenyl)-methyl]-dimethylamine]	72
COc1ccc(N2CCN(C(c3nc(Cc4ccccc4)c(N4CCCC4)o3)C3CCC(C(c4cccc(F)c4)N(C)C)CC3)CC2)cc1 (centres unmarked) [compound 123, [(4-{(4-benzyl-5-pyrrolidin-1-yl-oxazol-2-yl)-[4-(4-methoxyphenyl)-piperazin-1-yl]-methyl}-cyclohexyl)-(3-fluorophenyl)-methyl]-dimethylamine]	66
COc1ccc(N2CCN(C(c3nc(Cc4ccccc4)c(N4CCOCC4)o3)C3CCC(C(c4cccc(F)c4)N(C)C)CC3)CC2)cc1 (centres unmarked) [compound 124, [(4-{(4-benzyl-5-morpholin-4-yl-oxazol-2-yl)-[4-(4-methoxyphenyl)-piperazin-1-yl]-methyl}-cyclohexyl)-(3-fluorophenyl)-methyl]-dimethylamine]	60
CN(C)C(c1cccc(F)c1)C1CCC(C(c2nc(Cc3ccccc3)c(N3CCCC3)o2)N2CCc3ccccc3C2)CC1 (centres unmarked) [compound 125, [{4-[(4-benzyl-5-pyrrolidin-1-yl-oxazol-2-yl)-(3,4-dihydro-1H-isoquinolin-2-yl)-methyl]-cyclohexyl}-(3-fluorophenyl)-methyl]-dimethylamine]	83
CN(C)C(c1cccc(F)c1)C1CCC(C(c2nc(Cc3ccccc3)c(N3CCOCC3)o2)N2CCc3ccccc3C2)CC1 (centres unmarked) [compound 126, [{4-[(4-benzyl-5-morpholin-4-yl-oxazol-2-yl)-(3,4-dihydro-1H-isoquinolin-2-yl)-methyl]-cyclohexyl}-(3-fluorophenyl)-methyl]-dimethylamine]	76
COc1ccc(N2CCN(c3oc(C(C4CCC(C(c5cccc(F)c5)N(C)C)CC4)N4CCc5ccccc5C4)nc3Cc3ccccc3)CC2)cc1 (centres unmarked) [compound 127, [{4-[{4-benzyl-5-[4-(4-methoxy-phenyl)-piperazin-1-yl]-oxazol-2-yl}-(3,4-dihydro-1H-isoquinolin-2-yl)-methyl]-cyclohexyl}-(3-fluorophenyl)-methyl]-dimethylamine]	73
CC1CN(c2oc(C(C3CCC(C(c4cccc(F)c4)N(C)C)CC3)N3CCc4ccccc4C3)nc2Cc2ccccc2)CC(C)O1 (centres unmarked) [compound 128, [{4-[[4-benzyl-5-(2,6-dimethyl-morpholin-4-yl)-oxazol-2-yl]-(3,4-dihydro-1H-isoquinolin-2-yl)-methyl]-cyclohexyl}-(3-fluorophenyl)-methyl]-dimethylamine]	71
CN(C)C(c1ccc(Cl)cc1)C1CCC(C(c2nc(Cc3ccccc3)c(N3CCCC3)o2)N2CCOCC2)CC1 (centres unmarked) [compound 129, [{4-[(4-benzyl-5-pyrrolidin-1-yl-oxazol-2-yl)-morpholin-4-yl-methyl]-cyclohexyl}-(4-chlorophenyl)-methyl]-dimethylamine]	75
CN(C)C(c1ccc(Cl)cc1)C1CCC(C(c2nc(Cc3ccccc3)c(N3CCOCC3)o2)N2CCOCC2)CC1 (centres unmarked) [compound 130, [{4-[(4-benzyl-5-morpholin-4-yl-oxazol-2-yl)-morpholin-4-yl-methyl]-cyclohexyl}-(4-chlorophenyl)-methyl]-dimethylamine]	77
COc1ccc(N2CCN(c3oc(C(C4CCC(C(c5ccc(Cl)cc5)N(C)C)CC4)N4CCOCC4)nc3Cc3ccccc3)CC2)cc1 (centres unmarked) [compound 131, [[4-({4-benzyl-5-[4-(4-methoxyphenyl)-piperazin-1-yl]-oxazol-2-yl}-morpholin-4-yl-methyl)-cyclohexyl]-(4-chlorophenyl)-methyl]-dimethylamine]	64
CC1CN(c2oc(C(C3CCC(C(c4ccc(Cl)cc4)N(C)C)CC3)N3CCOCC3)nc2Cc2ccccc2)CC(C)O1 (centres unmarked) [compound 132, [(4-{[4-benzyl-5-(2,6-dimethylmorpholin-4-yl)-oxazol-2-yl]-morpholin-4-yl-methyl}-cyclohexyl)-(4-chlorophenyl)-methyl]-dimethylamine]	64
CN(C)C(c1ccc(Cl)cc1)C1CCC(C(c2nc(Cc3ccccc3)c(N3CCCC3)o2)N2CCN(c3ccc(F)cc3)CC2)CC1 (centres unmarked) [compound 133, [(4-{(4-benzyl-5-pyrrolidin-1-yl-oxazol-2-yl)-[4-(4-fluorophenyl)-piperazin-1-yl]-methyl}-cyclohexyl)-(4-chlorophenyl)-methyl]-dimethylamine]	64
COc1ccc(N2CCN(C(c3nc(Cc4ccccc4)c(N4CCCC4)o3)C3CCC(C(c4ccc(Cl)cc4)N(C)C)CC3)CC2)cc1 (centres unmarked) [compound 134, [(4-{(4-benzyl-5-pyrrolidin-1-yl-oxazol-2-yl)-[4-(4-methoxyphenyl)-piperazin-1-yl]-methyl}-cyclohexyl)-(4-chlorophenyl)-methyl]-dimethylamine]	72
COc1ccc(N2CCN(C(c3nc(Cc4ccccc4)c(N4CCOCC4)o3)C3CCC(C(c4ccc(Cl)cc4)N(C)C)CC3)CC2)cc1 (centres unmarked) [compound 135, [(4-{(4-benzyl-5-morpholin-4-yl-oxazol-2-yl)-[4-(4-methoxyphenyl)-piperazin-1-yl]-methyl}-cyclohexyl)-(4-chlorophenyl)-methyl]-dimethylamine]	70
COc1ccc(N2CCN(C(c3nc(Cc4ccccc4)c(N4CC(C)OC(C)C4)o3)C3CCC(C(c4ccc(Cl)cc4)N(C)C)CC3)CC2)cc1 (centres unmarked) [compound 136, [(4-{[4-benzyl-5-(2,6-dimethylmorpholin-4-yl)-oxazol-2-yl]-[4-(4-methoxy-phenyl)-piperazin-1-yl]-methyl}-cyclohexyl)-(4-chlorophenyl)-methyl]-dimethylamine]	62
CN(C)C(c1ccc(Cl)cc1)C1CCC(C(c2nc(Cc3ccccc3)c(N3CCCC3)o2)N2CCc3ccccc3C2)CC1 (centres unmarked) [compound 137, [{4-[(4-benzyl-5-pyrrolidin-1-yl-oxazol-2-yl)-(3,4-dihydro-1H-isoquinolin-2-yl)-methyl]-cyclohexyl}-(4-chlorophenyl)-methyl]-dimethylamine]	85
CN(C)C(c1cccs1)C1CCC(C(c2nc(Cc3ccccc3)c(N3CCCC3)o2)N2CCOCC2)CC1 (centres unmarked) [compound 138, ({4-[(4-benzyl-5-pyrrolidin-1-yl-oxazol-2-yl)-morpholin-4-yl-methyl]-cyclohexyl}-thiophen-2-yl-methyl)-dimethylamine]	91
CN(C)C(c1cccs1)C1CCC(C(c2nc(Cc3ccccc3)c(N3CCOCC3)o2)N2CCOCC2)CC1 (centres unmarked) [compound 139, ({4-[(4-benzyl-5-morpholin-4-yl-oxazol-2-yl)-morpholin-4-yl-methyl]-cyclohexyl}-thiophen-2-yl-methyl)-dimethylamine]	72
COc1ccc(N2CCN(c3oc(C(C4CCC(C(c5cccs5)N(C)C)CC4)N4CCOCC4)nc3Cc3ccccc3)CC2)cc1 (centres unmarked) [compound 140, {[4-({4-benzyl-5-[4-(4-methoxyphenyl)-piperazin-1-yl]-oxazol-2-yl}-morpholin-4-yl-methyl)-cyclohexyl]-thiophen-2-yl-methyl}-dimethylamine]	67
CC1CN(c2oc(C(C3CCC(C(c4cccs4)N(C)C)CC3)N3CCOCC3)nc2Cc2ccccc2)CC(C)O1 (centres unmarked) [compound 141, [(4-{[4-benzyl-5-(2,6-dimethylmorpholin-4-yl)-oxazol-2-yl]-morpholin-4-yl-methyl}-cyclohexyl)-thiophen-2-yl-methyl]-dimethylamine]	65
COc1ccc(N2CCN(C(c3nc(Cc4ccccc4)c(N4CCCC4)o3)C3CCC(C(c4cccs4)N(C)C)CC3)CC2)cc1 (centres unmarked) [compound 143, [(4-{(4-benzyl-5-pyrrolidin-1-yl-oxazol-2-yl)-[4-(4-methoxyphenyl)-piperazin-1-yl]-methyl}-cyclohexyl)-thiophen-2-yl-methyl]-dimethylamine]	77
COc1ccc(N2CCN(C(c3nc(Cc4ccccc4)c(N4CCOCC4)o3)C3CCC(C(c4cccs4)N(C)C)CC3)CC2)cc1 (centres unmarked) [compound 144, [(4-{(4-benzyl-5-morpholin-4-yl-oxazol-2-yl)-[4-(4-methoxy-phenyl)-piperazin-1-yl]-methyl}-cyclohexyl)-thiophen-2-yl-methyl]-dimethylamine]	64
COc1ccc(N2CCN(C(c3nc(Cc4ccccc4)c(N4CC(C)OC(C)C4)o3)C3CCC(C(c4cccs4)N(C)C)CC3)CC2)cc1 (centres unmarked) [compound 145, [(4-{[4-benzyl-5-(2,6-dimethylmorpholin-4-yl)-oxazol-2-yl]-[4-(4-methoxy-phenyl)-piperazin-1-yl]-methyl}-cyclohexyl)-thiophen-2-yl-methyl]-dimethylamine]	69
